Among the data in ChEMBL document CHEMBL5316298, “Discovery of Amphiphilic Xanthohumol Derivatives as Membrane-Targeting Antimicrobials against Methicillin-Resistant Staphylococcus aureus” (J Med Chem, 2023) are MIC and HC50 values, retold here.

For data set [1], the system named is Staphylococcus aureus. Kind of data set: Antibacterial activity against methicillin-resistant Staphylococcus aureus clinical isolate 8 incubated for 16 to 18 hrs by CLSI-based microbroth dilution method. The conditions noted are these: time 16-18 hrs. It is filed as functional. (In general: Dilution methods test growth across graded concentrations, often in twofold steps.)

Data set [2] has as its system Staphylococcus aureus. Put plainly: Antibacterial activity against methicillin-resistant Staphylococcus aureus clinical isolate 7 incubated for 16 to 18 hrs by CLSI-based microbroth dilution method. The class given is functional. The conditions noted are these: time 16-18 hrs.
Data set [3] concerns Staphylococcus aureus. Kind of data set: Antibacterial activity against methicillin-resistant Staphylococcus aureus clinical isolate 5 incubated for 16 to 18 hrs by CLSI-based microbroth dilution method. The class given is functional. To be noted: time 16-18 hrs.
Data set [4] relates to Staphylococcus aureus. Put plainly: Antibacterial activity against methicillin-resistant Staphylococcus aureus clinical isolate 10 incubated for 16 to 18 hrs by CLSI-based microbroth dilution method. To be noted: time 16-18 hrs. The class given is functional.
Data set [5] deals with Staphylococcus aureus. Kind of data set: Antibacterial activity against methicillin-resistant Staphylococcus aureus clinical isolate 2 incubated for 16 to 18 hrs by CLSI-based microbroth dilution method. It is filed as functional. To be noted: time 16-18 hrs.
Data set [6] concerns Staphylococcus aureus. Put plainly: Antibacterial activity against methicillin-resistant Staphylococcus aureus clinical isolate 9 incubated for 16 to 18 hrs by CLSI-based microbroth dilution method. The class given is functional. The conditions noted are these: time 16-18 hrs.
Data set [7] relates to Staphylococcus aureus. Kind of data set: Antibacterial activity against methicillin-resistant Staphylococcus aureus clinical isolate 3 incubated for 16 to 18 hrs by CLSI-based microbroth dilution method. To be noted: time 16-18 hrs. The class given is functional.
For data set [8], the system named is Staphylococcus aureus. Kind of data set: Antibacterial activity against methicillin-resistant Staphylococcus aureus clinical isolate 4 incubated for 16 to 18 hrs by CLSI-based microbroth dilution method. The class given is functional. The conditions noted are these: time 16-18 hrs.
In data set [9] the test system is Staphylococcus aureus. Kind of data set: Antibacterial activity against methicillin-resistant Staphylococcus aureus clinical isolate 6 incubated for 16 to 18 hrs by CLSI-based microbroth dilution method. The conditions noted are these: time 16-18 hrs. The class given is functional.
Data set [10] is described as follows: Hemolytic activity in sheep erythrocytes incubated for 1 hr by absorbance based analysis. The class given is toxicity, cell-based, Ovis aries, Erythrocyte.
In data set [11] the test system is Staphylococcus aureus. Kind of data set: Antibacterial activity against Staphylococcus aureus ATCC 29213 incubated for 16 to 18 hrs by CLSI-based microbroth dilution method. To be noted: time 16-18 hrs. It is filed as functional.
Data set [12] concerns Staphylococcus aureus. Put plainly: Antibacterial activity against methicillin-resistant Staphylococcus aureus clinical isolate 1 incubated for 16 to 18 hrs by CLSI-based microbroth dilution method. The class given is functional. The conditions noted are these: time 16-18 hrs.

In general, MIC refers to the least concentration at which growth counts as inhibited. A higher MIC goes with a need for much substance. For orientation: HC50 means the concentration that lyses half of the red blood cells. Low readings indicate stronger haemolysis, high ones weaker haemolysis.

Bounds are passed on as bounds.

Consider `CCCCCCNC(=O)C[N+](C)(C)CCCCCOc1ccc(/C=C/C(=O)c2c(OC)cc3c(c2O)C=CC(C)(C)O3)cc1.[Br-]`, for which the MIC in data set [1] was 4 µg/mL; in data set [2], 4 µg/mL; in [3], 2 µg/mL; in [4], 2 µg/mL; in [5] it was 2 µg/mL; in data set [6], 4 µg/mL. In addition, the MIC in data set [7] was determined as 2 µg/mL; in [8], 2 µg/mL; in data set [9], 2 µg/mL; in data set [11], 4 µg/mL; in [12], 2 µg/mL. In addition, the 50% haemolytic concentration (HC50) at 1 h in data set [10] worked out at 245 µg/mL.

On to `CCCCNC(=O)C[N+](C)(C)CCCCOc1ccc(/C=C/C(=O)c2c(OC)cc3c(c2O)C=CC(C)(C)O3)cc1.[Br-]`, for which the minimal inhibitory concentration (MIC) in data set [1] came out at 4 µg/mL; in [2], 2 µg/mL; in data set [3], 2 µg/mL; in data set [4], 4 µg/mL; in [5] it was 2 µg/mL; in data set [6] it was 2 µg/mL. The MIC in [7] turned out to be 2 µg/mL; in data set [8], 2 µg/mL; in data set [9], 2 µg/mL; in [11], 4 µg/mL; in data set [12], 2 µg/mL. In addition, the concentration for 50% haemolysis (HC50) at 1 h in [10] was 220 µg/mL.

Turning to `CCCN(CCC)C(=O)C[N+](C)(C)CCCOc1ccc(/C=C/C(=O)c2c(OC)cc3c(c2O)C=CC(C)(C)O3)cc1.[Br-]`, the minimum inhibitory concentration (MIC) in data set [1] is 2 µg/mL; in data set [2], 1 µg/mL; in data set [3], 2 µg/mL; in data set [4], 2 µg/mL; in [5], 2 µg/mL; in [6], 1 µg/mL. Also, the MIC is 1 µg/mL in data set [7]; 2 µg/mL in [8]; 2 µg/mL in [9]; 2 µg/mL in data set [11]; 2 µg/mL in [12]. The molecule further yielded a 50% haemolytic concentration (HC50) at 1 h in data set [10] of 118 µg/mL.

With `COc1cc2c(c(O)c1C(=O)/C=C/c1ccc(OCCCCC[N+](C)(C)CC(=O)N(C(C)C)C(C)C)cc1)C=CC(C)(C)O2.[Br-]`, the MIC in [1] turned out to be 4 µg/mL; in data set [2], 2 µg/mL; in data set [3] it was 2 µg/mL; in [4], 2 µg/mL; in data set [5] it was 2 µg/mL; in [6], 2 µg/mL. The minimum inhibitory concentration (MIC) is 2 µg/mL in data set [7]; 1 µg/mL in data set [8]; 1 µg/mL in data set [9]; 2 µg/mL in data set [11]; 2 µg/mL in data set [12]. This molecule also showed a 50% haemolytic concentration (HC50) at 1 h in data set [10] of 229 µg/mL.

Turning to `COc1cc2c(c(O)c1C(=O)/C=C/c1ccc(OCCCCC[N+](C)(C)CC(=O)N3CCOCC3)cc1)C=CC(C)(C)O2.[Br-]`, the MIC in data set [1] stood at 4 µg/mL; in [2], 4 µg/mL; in data set [3], 4 µg/mL; in data set [4] it was 2 µg/mL; in [5], 4 µg/mL; in [6], 4 µg/mL. The minimum inhibitory concentration (MIC) in data set [7] is 4 µg/mL; in data set [8], 4 µg/mL; in [9] it was 2 µg/mL; in [11], 8 µg/mL; in data set [12], 2 µg/mL. The same molecule returned an HC50 at 1 h in data set [10] of over 1280 µg/mL.

In the case of `COc1cc2c(c(O)c1C(=O)/C=C/c1ccc(OCCC[N+](C)(C)CC(=O)N3CCSCC3)cc1)C=CC(C)(C)O2.[Br-]`, the minimum inhibitory concentration (MIC) in data set [1] came out at 2 µg/mL; in data set [2], 2 µg/mL; in data set [3], 2 µg/mL; in data set [4] it was 4 µg/mL; in data set [5], 2 µg/mL; in data set [6] it was 2 µg/mL. Further, the minimal inhibitory concentration (MIC) came out at 2 µg/mL in data set [7]; 4 µg/mL in data set [8]; 2 µg/mL in data set [9]; 2 µg/mL in data set [11]; 4 µg/mL in data set [12]. The same molecule gave a concentration for 50% haemolysis (HC50) at 1 h in data set [10] of 416 µg/mL.

In the case of `COc1cc2c(c(O)c1C(=O)/C=C/c1ccc(OCCCC[N+](C)(C)CC(=O)N(C(C)C)C(C)C)cc1)C=CC(C)(C)O2.[Br-]`, the MIC in data set [1], in data set [2], in [3], in data set [4], in data set [5] and in data set [6] was 2 µg/mL each time. For the same molecule, the MIC in [7] was found to be 2 µg/mL; in data set [8], 2 µg/mL; in [9] it was 1 µg/mL; in data set [11] it was 2 µg/mL; in [12] it was 8 µg/mL. In data set [10], this molecule gave an HC50 at 1 h of 657 µg/mL.

Consider `CCCNC(=O)C[N+](C)(C)CCCCOc1ccc(/C=C/C(=O)c2c(OC)cc3c(c2O)C=CC(C)(C)O3)cc1.[Br-]`, for which the minimum inhibitory concentration (MIC) in [1] stood at 2 µg/mL; in data set [2], 2 µg/mL; in [3], 4 µg/mL; in [4], 4 µg/mL; in data set [5], 2 µg/mL; in [6], 2 µg/mL. Further, the MIC in [7] came out at 2 µg/mL; in data set [8], 4 µg/mL; in data set [9], 2 µg/mL; in data set [11] it was 4 µg/mL; in data set [12], 2 µg/mL. In [10], this molecule showed an HC50 at 1 h of 410 µg/mL.
